Data reported in patent US10597388B2, “Pyridazinone herbicides” (FMC CORPORATION, priority 2014, dated 2020).

How the values were obtained:
Format in all cases: in vivo
[1] = tested on: blackgrass (Alopecurus myosuroides); test: Test A greenhouse herbicide test, postemergence
How it was run: (§1)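 Pot-grown plants (loam soil/sand blend), 2–10 cm tall at the one- to two-leaf stage, received postemergence sprays of formulated test chemical. After about 10 d in the greenhouse, injury was rated visually against untreated controls on a 0 (no effect) to 100 (complete control) scale.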

[2] = tested on: galium (catchweed bedstraw, Galium aparine); test: Test A greenhouse herbicide test, postemergence
How it was run: as §1

[3] = tested on: barnyardgrass (Echinochloa crus-galli); test: Test B flooded paddy test; conditions: 250 g ai/ha, Flood; visual rating on scale of 0 to 100 where 0 is no effect and 100 is complete control; 13 to 15 d after treatment
How it was run: (§2)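 Plants grown to the 2-leaf stage. At treatment, pots were flooded to 3 cm above the soil, compound was applied directly to the paddy water, and that depth was held throughout. After 13 to 15 d in the greenhouse, response was rated visually against controls on a 0 (no effect) to 100 (complete control) scale.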

[4] = tested on: ducksalad (Heteranthera limosa); test: Test B flooded paddy test; conditions: 250 g ai/ha, Flood; visual rating on scale of 0 to 100 where 0 is no effect and 100 is complete control; 13 to 15 d after treatment
How it was run: as §2

rice (Oryza sativa) = test: Test B flooded paddy test; conditions: 250 g ai/ha, Flood; visual rating on scale of 0 to 100 where 0 is no effect and 100 is complete control; 13 to 15 d after treatment
How it was run: as §2

[5] = tested on: sedge, umbrella (small-flower umbrella sedge, Cyperus difformis); test: Test B flooded paddy test; conditions: 250 g ai/ha, Flood; visual rating on scale of 0 to 100 where 0 is no effect and 100 is complete control; 13 to 15 d after treatment
How it was run: as §2

[6] = tested on: johnsongrass (Sorghum halepense); test: Test C greenhouse herbicide test, pre- and postemergence
How it was run: (§3)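 Pre- and postemergence greenhouse screen; values are visual control ratings, 0 meaning no effect and 100 complete kill, assigned relative to untreated plants after 13 to 15 d.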

[7] = tested on: nutsedge, yellow (yellow nutsedge, Cyperus esculentus); test: as above
How it was run: as §3

soybean (Glycine max) = test: as above
How it was run: as §3

[8] = tested on: chickweed (common chickweed, Stellaria media); test: Test C greenhouse herbicide test, postemergence
How it was run: (§4)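 Greenhouse postemergence spray on plants 2–18 cm tall; response judged visually after 13–15 d relative to untreated controls using a 0 (none) to 100 (full control) scale.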

kochia (Kochia scoparia) = test: Test C greenhouse herbicide test, postemergence
How it was run: as §4

[9] = tested on: oat, wild (wild oat, Avena fatua); test: Test C greenhouse herbicide test, postemergence
How it was run: as §4

[10] = 125 g ai/ha, 0 to 100 scale, 0 no effect, 100 complete control
[11] = 500 g ai/ha, visual rating after approx. 10 d, 0 to 100 scale (0 no effect, 100 complete control)
[12] = Postemergence, 31 g ai/ha, scale 0 to 100 (0 no effect, 100 complete control)
[13] = Postemergence, 62 g ai/ha, 0 to 100 scale (0 no effect, 100 complete control)
[14] = Postemergence, 250 g ai/ha, scale 0 to 100, 0 is no effect, 100 is complete control
[15] = postemergence, 125 g ai/ha, scale 0 to 100, 0 no effect, 100 complete control

**Q.** For `Cc1nn(C)c(=O)c(-c2c([N+](=O)[O-])ccc3ccccc23)c1O` [Compound 165], which “Plant response rating, Blackgrass” value [1, 10] is on record?
**A.** 20

**Q.** And the “Plant response rating, Blackgrass” value [1, 11]?
**A.** 50

**Q.** And the “Plant response rating, Galium” value [2, 10]?
**A.** 100

**Q.** What about the “Plant response rating, Galium” value [2, 11] of the same compound?
**A.** 100

**Q.** What about the “Plant response rating, Barnyardgrass” value [3] of the same compound?
**A.** 0

**Q.** And the “Plant response rating, Ducksalad” value [4]?
**A.** 0

**Q.** And the “Plant response rating, Rice” value (rice (Oryza sativa))?
**A.** 0

**Q.** What about the “Plant response rating, Sedge, Umbrella” value [5] of the same compound?
**A.** 0

**Q.** What about the “Plant response rating, Johnsongrass” value [6, 12] of the same compound?
**A.** 0

**Q.** And the “Johnsongrass plant response rating” value [6, 13]?
**A.** 5

**Q.** And the “Plant response rating, Johnsongrass” value [6, 14]?
**A.** 15

**Q.** And the “Johnsongrass plant response rating” value [6, 15]?
**A.** 10

**Q.** And the “Plant response rating, Nutsedge, Yellow” value [7, 12]?
**A.** 20

**Q.** And the “Nutsedge, Yellow plant response rating” value [7, 13]?
**A.** 30

**Q.** And the “Plant response rating, Nutsedge, Yellow” value [7, 14]?
**A.** 35

**Q.** What about the “Nutsedge, Yellow plant response rating” value [7, 15] of the same compound?
**A.** 25

**Q.** And the “Plant response rating, Soybean” value (soybean (Glycine max); [12])?
**A.** 10

**Q.** What about the “Soybean plant response rating” value (soybean (Glycine max); [13]) of the same compound?
**A.** 10

**Q.** And the “Plant response rating, Soybean” value (soybean (Glycine max); [14])?
**A.** 15

**Q.** What about the “Soybean plant response rating” value (soybean (Glycine max); [15]) of the same compound?
**A.** 15

**Q.** And the “Plant response rating, Chickweed” value [8, 12]?
**A.** 70

**Q.** What about the “Chickweed plant response rating” value [8, 13] of the same compound?
**A.** 90

**Q.** And the “Plant response rating, Chickweed” value [8, 14]?
**A.** 98

**Q.** What about the “Chickweed plant response rating” value [8, 15] of the same compound?
**A.** 95

**Q.** What about the “Plant response rating, Kochia” value (kochia (Kochia scoparia); [12]) of the same compound?
**A.** 45

**Q.** What about the “Kochia plant response rating” value (kochia (Kochia scoparia); [13]) of the same compound?
**A.** 40

**Q.** What about the “Plant response rating, Kochia” value (kochia (Kochia scoparia); [14]) of the same compound?
**A.** 90

**Q.** And the “Kochia plant response rating” value (kochia (Kochia scoparia); [15])?
**A.** 85

**Q.** And the “Plant response rating, Oat, Wild” value [9, 12]?
**A.** 40

**Q.** And the “Oat, Wild plant response rating” value [9, 13]?
**A.** 45

**Q.** And the “Plant response rating, Oat, Wild” value [9, 14]?
**A.** 70

**Q.** And the “Oat, Wild plant response rating” value [9, 15]?
**A.** 65
